Read-outs that look alike come from different tables or passages of the source.
What was measured:
[1] = cited from earlier work
[2] = test system: Male Brown Norway Rats; settings: rat, in vivo, ip, 2 days
Experimental: Thymus weight reduction studies were performed in accordance to the NIH GUIDE TO THE CARE AND USE OF LABORATORY ANIMALS and the Animal Welfare Act in an AAALAC-accredited program. Male Brown Norway Rats (200-250 g, Charles River, Bloomington, Mass., USA) were used in these studies. The effect of test steroid compounds compared to a control group was studied on thymus involution. […] Rats were dosed i.p. with test compound QD for two days. Twenty four hours after the 2nd dose, animals were euthanized with pentobarbital (125 mg/kg, i.p.). The thymus were removed and weighed and the results expressed as a percentage thymus involution. Doses are expressed in mg/kg. “NS” means not statistically significant.

## Oc1cccc(Nc2ncc(F)c(Nc3cccc(O)c3)n2)c1 [Example R112]
[1]; from baseline (prior to drug initiation)
  improvement from baseline measurements of symptoms associated with chronic nasal congestion: up to 38%
[1]; versus placebo, absolute
  absolute difference over placebo, symptoms associated with chronic nasal congestion: 9%
[1]; versus placebo, relative
  relative improvement over placebo, symptoms associated with chronic nasal congestion: greater than 20%

## C[C@@H]1CC2C3CCC4=CC(=O)C=CC4(C)[C@@]3(F)[C@@H](O)CC2(C)[C@@]1(O)C(=O)CSc1nc2ccccc2s1 (stereo partly drawn) [US′120]
[2]; 10 mg/kg
  % Thymus Involution: 62 ± 3%

## CC12CCC(=O)C=C1CCC1C2[C@@H](O)CC2(C)C1CC[C@]2(O)C(=O)CSc1nc2ccccc2s1 (stereo partly drawn) [Inventive Compound A]
[2]; 30 mg/kg
  % Thymus Involution: −4 ± 7%

## CC12C[C@H](O)[C@@]3(F)C(CCC4=CC(=O)CCC43C)C1CC[C@]2(O)C(=O)CSc1nc2ccccc2s1 (stereo partly drawn) [Inventive Compound B]
[2]; 30 mg/kg
  % Thymus Involution: 10 ± 4%
